# What was measured:
# Sclerotinia homoeocarpa [1] = assay: Radial growth of dollar spot fungus on amended Potato Dextrose Agar, dark vs light; format: cell-based
# Sclerotinia homoeocarpa [2] = assay: Radial growth of dollar spot fungus after treatment of plugs in PBS (24 well plates), dark vs light; format: cell-based; conditions: for inhibition at 500 µM / inhibition at 1500 µM: Clarireedia homoeocarpa
# Method: In this example, control of dollar spot fungus (Sclerotinia homoeocarpa) with chlorins combined with a chelating agent was assessed. Treatments were prepared in Phosphate Buffered Saline (PBS) in 24 well plates (in duplicates for light vs. dark incubation) at desired concentrations. Then, a 5 mm diameter plug of a Sclerotinia homoeocarpa isolate (3 isolates total tested) was inoculated into the PBS and incubated at 21° C. in the dark for 2 hours. After 2 hours, one of the 24 well plates (with isolates in triplicate) is left in the dark and one 24 well plate is placed under illumination for 1 hour (all at 21° C.). Following illumination, fungal plugs are removed from PBS, blotted dry on sterile filter paper and transferred to non-amended Potato Dextrose Agar (PDA). Radial growth of the fungus is monitored daily until the growth of S. homoeocarpa reaches the edge of the Petri-dish. Illumination is provided by LED lights emitting about 1000 μmol/m^2/s photosynthetically active radiation (PAR). In this example, control of dollar spot fungus (Sclerotinia homoeocarpa) with Zinc Protoporphyrin IX (Zn-PPIX) combined with EDTA was assessed. Treatments were prepared in Phosphate Buffered Saline (PBS) in 24 well plates (in duplicates for light vs. dark incubation) at desired concentrations. Then, a 5 mm diameter plug of a Sclerotinia homoeocarpa isolate (3 isolates total tested) was inoculated into the PBS and incubated at 21° C. in the dark for 2 hours. After 2 hours, one of the 24 well plates (with isolates in triplicate) is left in the dark and one 24 well plate is placed under illumination for 1 hour (all at 21° C.). Following illumination, fungal plugs are removed from PBS, blotted dry on sterile filter paper and transferred to non-amended Potato Dextrose Agar (PDA). Radial growth of the fungus is monitored daily until the growth of S. homoeocarpa reaches the edge of the Petri-dish. Illumination is provided by LED lights emitting about 1000 μmol/m^2/s photosynthetically active radiation (PAR). In this example, control of dollar spot fungus (Sclerotinia homoeocarpa) with bacteriochlorin combined with EDTA was assessed. Treatments were prepared in Phosphate Buffered Saline (PBS) in 24 well plates (in duplicates for light vs. dark incubation) at desired concentrations. Then, a 5 mm diameter plug of a Sclerotinia homoeocarpa isolate (3 isolates total tested) was inoculated into the PBS and incubated at 21° C. in the dark for 2 hours. After 2 hours, one of the 24 well plates (with isolates in triplicate) is left in the dark and one 24 well plate is placed under illumination for 1 hour (all at 21° C.). Following illumination, fungal plugs are removed from PBS, blotted dry on sterile filter paper and transferred to non-amended Potato Dextrose Agar (PDA). Radial growth of the fungus is monitored daily until the growth of S. homoeocarpa reaches the edge of the Petri-dish. Illumination is provided by LED lights emitting about 1000 μmol/m^2/s photosynthetically active radiation (PAR). In this example, control of dollar spot fungus (Sclerotinia homoeocarpa) with Aluminum chlorin e6 combined with EDTA was assessed. Treatments were prepared in Phosphate Buffered Saline (PBS) in 24 well plates (in duplicates for light vs. dark incubation) at desired concentrations. Then, a 5 mm diameter plug of a Sclerotinia homoeocarpa isolate (3 isolates total tested) was inoculated into the PBS and incubated at 21° C. in the dark for 2 hours. After 2 hours, one of the 24 well plates (with isolates in triplicate) is left in the dark and one 24 well plate is placed under illumination for 1 hour (all at 21° C.). Following illumination, fungal plugs are removed from PBS, blotted dry on sterile filter paper and transferred to non-amended Potato Dextrose Agar (PDA). Radial growth of the fungus is monitored daily until the growth of S. homoeocarpa reaches the edge of the Petri-dish. Illumination is provided by LED lights emitting about 1000 μmol/m^2/s photosynthetically active radiation (PAR). […]
# [3] = Table 16B, light, Chlorin Rate 5 μM
# [4] = Table 16B, light, Chlorin Rate 10 μM
# [5] = Table 16B, light, Chlorin Rate 31 μM
compound,measurement,setting,value
C=Cc1c(C)c2cc3nc(c(CC(=O)O)c4[n-]c(cc5nc(cc1[n-]2)C(C)=C5CC)c(C)c4C(=O)O)C(CCC(=O)O)C3C.[Pd+2] (stereo not shown) [PdCe6],% Inhibition,"Sclerotinia homoeocarpa [1]; Table 16A, dark, rate 5 μM",18.82%
same,Mean Radial Growth,"Sclerotinia homoeocarpa [1]; Table 16A, dark, rate 5 μM",11.5 mm
same,% Inhibition,"Sclerotinia homoeocarpa [1]; Table 16A, dark, rate 10 μM",36.47%
same,Mean Radial Growth,"Sclerotinia homoeocarpa [1]; Table 16A, dark, rate 10 μM",9.0 mm
same,% Inhibition,"Sclerotinia homoeocarpa [1]; Table 16A, dark, rate 31 μM",42.75%
same,Mean Radial Growth,"Sclerotinia homoeocarpa [1]; Table 16A, dark, rate 31 μM",8.1 mm
same,% Inhibition,Sclerotinia homoeocarpa [1]; [3],49.3%
same,Mean Radial Growth,Sclerotinia homoeocarpa [1]; [3],6.2 mm
same,% Inhibition,Sclerotinia homoeocarpa [1]; [4],76.9%
same,Mean Radial Growth,Sclerotinia homoeocarpa [1]; [4],2.8 mm
same,% Inhibition,Sclerotinia homoeocarpa [1]; [5],100.0%
same,Mean Radial Growth,Sclerotinia homoeocarpa [1]; [5],0 mm
"C=Cc1c(C)c2cc3nc(c(CC(=O)O)c4[n-]c(cc5nc(cc1[n-]2)C(C)=C5CC)c(C)c4C(=O)O)C(CCC(=O)O)C3C.[Co+2] (stereo not shown) [CoCe6, reference compound]",% Inhibition,"Sclerotinia homoeocarpa [1]; Table 17A, dark, rate 10 μM",2.05%
same,Mean Radial Growth,"Sclerotinia homoeocarpa [1]; Table 17A, dark, rate 10 μM",13.3 mm
same,% Inhibition,"Sclerotinia homoeocarpa [1]; Table 17A, dark, rate 31 μM",4.92%
same,Mean Radial Growth,"Sclerotinia homoeocarpa [1]; Table 17A, dark, rate 31 μM",12.9 mm
same,% Inhibition,"Sclerotinia homoeocarpa [1]; Table 17B, light, rate 10 μM",3.0%
same,Mean Radial Growth,"Sclerotinia homoeocarpa [1]; Table 17B, light, rate 10 μM",12.4 mm
same,% Inhibition,"Sclerotinia homoeocarpa [1]; Table 17B, light, rate 31 μM",3.9%
same,Mean Radial Growth,"Sclerotinia homoeocarpa [1]; Table 17B, light, rate 31 μM",12.3 mm
O=C(OC[C@H]1O[C@@H](OC(=O)c2cc(O)c(O)c(OC(=O)c3cc(O)c(O)c(O)c3)c2)[C@H](OC(=O)c2cc(O)c(O)c(OC(=O)c3cc(O)c(O)c(O)c3)c2)[C@@H](OC(=O)c2cc(O)c(O)c(OC(=O)c3cc(O)c(O)c(O)c3)c2)[C@@H]1OC(=O)c1cc(O)c(O)c(OC(=O)c2cc(O)c(O)c(O)c2)c1)c1cc(O)c(O)c(OC(=O)c2cc(O)c(O)c(O)c2)c1 [Tannic acid],inhibition at 500 µM,"Sclerotinia homoeocarpa [2]; Table 25A, dark, rate 500 μM",-6.25%
same,inhibition at 1500 µM,"Sclerotinia homoeocarpa [2]; Table 25A, dark, rate 1500 μM",7.29%
same,inhibition at 500 µM,"Sclerotinia homoeocarpa [2]; Table 25B, light, rate 500 μM",-9.69%
same,inhibition at 1500 µM,"Sclerotinia homoeocarpa [2]; Table 25B, light, rate 1500 μM",16.3%
same,Mean Radial Growth,"Sclerotinia homoeocarpa [2]; Table 25A, dark, rate 500 μM",11.33 mm
same,Mean Radial Growth,"Sclerotinia homoeocarpa [2]; Table 25A, dark, rate 1500 μM",9.89 mm
same,Mean Radial Growth,"Sclerotinia homoeocarpa [2]; Table 25B, light, rate 500 μM",11.94 mm
same,Mean Radial Growth,"Sclerotinia homoeocarpa [2]; Table 25B, light, rate 1500 μM",9.11 mm
"C=CC1=C(C)c2cc3[n-]c(cc4[n-]c(cc5nc(cc1n2)C(C)=C5C=C)c(C)c4CCC(=O)O)c(CCC(=O)O)c3C.[Zn+2] [Zn Protoporphyrin IX (PPIX), Zinc Protoporphyrin IX]",% Inhibition,"Sclerotinia homoeocarpa [2]; Table 19A, light, rate 10 μM",7.50%
same,Mean Radial Growth,"Sclerotinia homoeocarpa [2]; Table 19A, light, rate 10 μM",10.28 mm
C[n+]1ccc(-c2c3nc(c(-c4cc[n+](C)cc4)c4ccc([nH]4)c(-c4cc[n+](C)cc4)c4nc(c(-c5cc[n+](C)cc5)c5ccc2[nH]5)C=C4)C=C3)cc1.Cc1ccc(S(=O)(=O)[O-])cc1.Cc1ccc(S(=O)(=O)[O-])cc1.Cc1ccc(S(=O)(=O)[O-])cc1.Cc1ccc(S(=O)(=O)[O-])cc1 [meso-Tetra (N-methyl-4-pyridyl) porphine tetra tosylate],% Inhibition,"Sclerotinia homoeocarpa [2]; Table 31A, dark, rate 0.1 μM",4.17%
same,Mean Radial Growth,"Sclerotinia homoeocarpa [2]; Table 31A, dark, rate 0.1 μM",14.06 mm
same,% Inhibition,"Sclerotinia homoeocarpa [2]; Table 31B, light, rate 0.1 μM",34.63%
same,Mean Radial Growth,"Sclerotinia homoeocarpa [2]; Table 31B, light, rate 0.1 μM",8.39 mm

# Source: patent publication US20200253211A1, “PHOTODYNAMIC INHIBITION OF MICROBIAL PATHOGENS IN PLANTS” (SUNCOR ENERGY INC, priority 2017, published 2020)
